Test results reported in patent US20090105349A1, “ANDROGEN MODULATORS” (WARNER-LAMBERT COMPANY LLC, priority 2004, published 2009).
Residue numbers refer to the chain shown, from its start. Where two headings read alike, the source gives them in different places.

Columns and labels:
[1] = target: T1, hAR (human androgen receptor) (Homo sapiens, UniProt P10275); experiment: Competitive hAR binding assay with 3H-DHT tracer
T1 construct: made in house; host or cells: baculovirus/Sf9 insect cells (crude extract)
T1 sequence (P10275 1-920): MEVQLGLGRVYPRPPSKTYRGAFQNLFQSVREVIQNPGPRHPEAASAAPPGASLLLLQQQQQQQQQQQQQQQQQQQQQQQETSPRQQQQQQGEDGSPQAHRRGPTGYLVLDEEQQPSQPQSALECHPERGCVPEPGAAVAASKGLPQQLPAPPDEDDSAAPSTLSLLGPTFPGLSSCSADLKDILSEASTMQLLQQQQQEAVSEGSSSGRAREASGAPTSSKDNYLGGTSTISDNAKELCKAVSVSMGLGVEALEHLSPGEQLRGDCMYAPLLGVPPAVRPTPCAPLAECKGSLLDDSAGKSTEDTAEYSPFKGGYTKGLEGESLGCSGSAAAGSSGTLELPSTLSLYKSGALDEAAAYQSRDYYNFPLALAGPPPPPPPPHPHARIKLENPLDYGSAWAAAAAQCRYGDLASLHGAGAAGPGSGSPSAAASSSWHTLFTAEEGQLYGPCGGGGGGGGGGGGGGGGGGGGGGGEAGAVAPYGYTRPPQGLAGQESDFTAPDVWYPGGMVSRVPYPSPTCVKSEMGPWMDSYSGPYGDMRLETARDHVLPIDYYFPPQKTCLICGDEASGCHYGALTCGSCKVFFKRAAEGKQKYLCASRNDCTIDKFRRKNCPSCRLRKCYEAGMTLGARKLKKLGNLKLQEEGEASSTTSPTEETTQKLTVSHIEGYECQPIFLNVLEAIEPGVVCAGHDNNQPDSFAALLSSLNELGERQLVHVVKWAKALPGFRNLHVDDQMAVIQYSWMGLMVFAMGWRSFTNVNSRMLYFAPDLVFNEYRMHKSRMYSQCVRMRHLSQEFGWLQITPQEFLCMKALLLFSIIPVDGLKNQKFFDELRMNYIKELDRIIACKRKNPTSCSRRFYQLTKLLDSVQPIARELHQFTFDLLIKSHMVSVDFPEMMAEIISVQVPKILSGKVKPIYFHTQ
Experimental: The description below describes how the assay was carried out.
Competitive binding analysis was performed on baculovirus/Sf9 generated hAR extracts in the presence or absence of different concentrations of test agent and a fixed concentration of ^3H-dihydrotestosterone (3H-DHT) as tracer. […] Subsequently, the binding reactions are washed three times to completely remove excess unbound ^3H-DHT. hAR bound ^3H-DHT levels are determined in the presence of compounds (i.e. competitive binding) and compared to levels bound when no competitor is present (i.e. maximum binding). Compound binding affinity to the hAR is expressed as the concentration of compound at which one half of the maximum binding is inhibited.

[2] = target: T2, androgen receptor in MDA-MB453-MMTV clone 54-19 cells (Homo sapiens, UniProt P10275); experiment: AR antagonist cell assay (MMTV-luciferase reporter); assay type: cell-based
T2 sequence (P10275 1-920 Q868H): T1 sequence (P10275 1-920) with Q868H
Experimental: The compounds ability to antagonize the effects of androgen on the androgen receptor were determined in a whole cell assay as described immediately below.
This cell line is a stable transfected cell line with MDA-MB453 cell background (a human breast tumor cell line expressing androgen receptor). A MMTV minimal promoter containing ARE was first cloned in front of a firefly luciferase reporter gene. Then the cascade was cloned into transfection vector pUV120puro. […] Puromycin resistant stable cell line was selected.
Plating medium: DMEM (phenol red free), 10% charcoal treated HyClone serum, 1% L-glutamine
Assay medium: DMEM (phenol red free), 1% charcoal treated HyClone serum, 1% L-glutamine, and 1% penicillin/streptomycin
Assay procedure: • 1. Cells are maintained in culture medium, splitting cells when they reach 80-90% confluence • 2. To test compounds, 10,000 cells/well are plated to opaque 96 cell culture plate in 100 ul/well plating medium, culture for overnight at 37° C. in cell culture incubator • 3. […] Add 10 ul/well freshly prepared DHT (final concentration at […]) to each well, incubate at 37° C. for 17 hr (overnight) • 5.
The results are reported as the mean of multiple tests as described below (the numbers of tests are indicated in the footnote). N.D. denotes that the compound was not tested.

[3] = baculovirus/Sf9 hAR extract, 1 nM 3H-DHT, one hour at 4° C, mean of multiple tests, read-out: AR Binding IC50
[4] = MDA-MB453-MMTV clone 54-19, inhibition of DHT induced luciferase, 17 hr; mean of multiple tests; read-out: AR Cell IC50
[5] = read-out: AR Cell IC50; MDA-MB453-MMTV clone 54-19, inhibition of DHT induced luciferase, 17 hr; mean of multiple tests

Row | SMILES | IC50 [1, 3] [nM] | IC50 [2, 4] [nM] | IC50 [1] [nM] | IC50 [2, 5] [nM]
1 | CCOc1cc(C)ccc1Oc1ccc(C#N)cc1Cl [Example 30, 3-Chloro-4-(2-ethoxy-4-methyl-phenoxy)-benzonitrile] | 42 | 869 | – | –
2 | N#Cc1ccc(Oc2c(F)cccc2F)c(Cl)c1 [Example 124, 3-Chloro-4-(2,6-difluoro-phenoxy)-benzonitrile] | – | – | 45 | 60
3 | Cc1cc(C)c(Oc2ccc(C#N)c(Cl)c2)c(C)c1 [Example 50, 2-Chloro-4-(2,4,6-trimethyl-phenoxy)-benzonitrile] | – | 214 | 22 | –
4 | N#Cc1ccc(Oc2cccc(O)c2)cc1C(F)(F)F [Example 82, 4-(3-Hydroxy-phenoxy)-2-trifluoromethyl-benzonitrile] | – | – | 85 | 61
5 | CCN(CC)C(=O)c1ccccc1Oc1ccc(C#N)c(C(F)(F)F)c1 [Example 106, 2-(4-Cyano-3-trifluoromethyl-phenoxy)-N,N-diethyl-benzamide] | 175 | > 1000 | – | –
6 | Cc1cccc(Oc2ccc(C#N)c(Cl)c2)c1 [Example 41, 2-Chloro-4-m-tolyloxy-benzonitrile] | – | 120 | 86 | –
7 | Cc1ccc(Oc2ccc(C#N)c(Cl)c2)c(C)c1 [Example 45, 2-Chloro-4-(2,4-dimethyl-phenoxy)-benzonitrile] | – | 721 | 25 | –
8 | CSc1ccccc1Oc1ccc(C#N)c(Cl)c1 [Example 3, 2-Chloro-4-(2-methylsulfanyl-phenoxy)-benzonitrile] | – | – | 47 | < 0.32
9 | N#Cc1ccc(Oc2ccccc2)cc1Cl [Example 66, 2-Chloro-4-phenoxy-benzonitrile] | 147 | 333 | – | –
10 | Cc1ccc(C)c(Oc2ccc(C#N)c(Cl)c2)c1 [Example 68, 2-Chloro-4-(2,5-dimethyl-phenoxy)-benzonitrile] | – | > 1000 | 69 | –
11 | N#Cc1ccc(Oc2ccc(F)cc2F)cc1C(F)(F)F [Example 115, 4-(2,4-Difluoro-phenoxy)-2-trifluoromethyl-benzonitrile] | – | – | 128 | 56
12 | Cc1ccc(Oc2ccc(C#N)c(C(F)(F)F)c2)c(C)c1 [Example 99, 4-(2,4-Dimethyl-phenoxy)-2-trifluoromethyl-benzonitrile] | – | 899 | 46 | –
13 | COc1cccc(Oc2ccc(C#N)c(Cl)c2)c1OC [Example 54, 2-Chloro-4-(2,3-dimethoxy-phenoxy)-benzonitrile] | 157 | – | – | 26
14 | COc1ccccc1Oc1ccc(C#N)c(Cl)c1 [Example 42, 2-Chloro-4-(2-methoxy-phenoxy)-benzonitrile] | – | 387 | 2 | –
15 | COc1ccccc1Oc1ccc(C#N)cc1Cl [Example 10, 3-Chloro-4-(2-methoxy-phenoxy)-benzonitrile] | – | 319 | 29 | –
16 | CCCC(=O)Nc1ccc(Oc2ccc(C#N)c(Cl)c2)cc1 [Example 61, N-[4-(3-Chloro-4-cyano-phenoxy)-phenyl]-butyramide] | 163 | 535 | – | –
17 | N#CCCc1ccc(Oc2ccc(C#N)c(Cl)c2)cc1 [Example 46, 2-Chloro-4-[4-(2-cyano-ethyl)-phenoxy]-benzonitrile] | 304 | 197 | – | –
18 | COc1cccc(OC)c1Oc1ccc(C#N)c(Cl)c1 [Example 38, 2-Chloro-4-(2,6-dimethoxy-phenoxy)-benzonitrile] | 249 | – | – | 19
19 | N#Cc1ccc(Oc2ccccc2C2CCCC2)cc1C(F)(F)F [Example 104, 4-(2-Cyclopentyl-phenoxy)-2-trifluoromethyl-benzonitrile] | 228 | 592 | – | –
20 | N#Cc1ccc(Oc2ccc(C#N)c(Cl)c2)cc1 [Example 67, 2-Chloro-(4-cyano-phenoxy)-benzonitrile] | 230 | 340 | – | –
21 | N#Cc1ccc(Oc2cccc3ccccc23)cc1C(F)(F)F [Example 97, 4-(Naphthalen-1-yloxy)-2-trifluoromethyl-benzonitrile] | – | 554 | 100 | –
22 | COc1cc(C)ccc1Oc1ccc(C#N)c(Cl)c1 [Example 47, 2-Chloro-4-(2-methoxy-4-methyl-phenoxy)-benzonitrile] | – | > 1000 | 4 | –
23 | Cc1ccc(F)c(Oc2ccc(C#N)c(C(F)(F)F)c2)c1F [Example 118, 4-(2,6-Difluoro-3-methyl-phenoxy)-2-trifluoromethyl-benzonitrile] | – | 249 | 76 | –
24 | COc1c(O)cccc1Oc1ccc(C#N)c(C(F)(F)F)c1 [Example 116, 4-(3-Hydroxy-2-methoxy-phenoxy)-2-trifluoromethyl-benzonitrile] | – | – | 30 | 3
25 | CC(C)Oc1ccccc1Oc1ccc(C#N)c(C(F)(F)F)c1 [Example 110, 4-(2-Isopropoxy-phenoxy)-2-trifluoromethyl-benzonitrile] | 218 | 206 | – | –
26 | C=CCc1cccc(C)c1Oc1ccc(C#N)c(Cl)c1 [Example 44, 4-(2-Allyl-6-methyl-phenoxy)-2-chloro-benzonitrile] | – | 282 | 79 | –
27 | C=CCc1ccccc1Oc1ccc(C#N)c(C(F)(F)F)c1 [Example 105, 4-(2-Allyl-phenoxy)-2-trifluoromethyl-benzonitrile] | – | > 1000 | 82 | –
28 | COc1cccc(Oc2ccc(C#N)c(Cl)c2)c1 [Example 37, 2-Chloro-4-(3-methoxy-phenoxy)-benzonitrile] | 114 | 139 | – | –
29 | CCc1ccccc1Oc1ccc(C#N)cc1Cl [Example 23, 3-Chloro-(2-ethyl-phenoxy)-benzonitrile] | 227 | > 1000 | – | –
